Experimental data from publication PMC10972746, “Substrate-induced condensation activates plant TIR domain proteins” (Nature, 2024).
Residue numbers refer to the chain shown, from its start.

Key:
[1] = target: T1, RBA1–GFP (Arabidopsis thaliana, UniProt F4HT77); experiment: NADase assay, HPLC at […] nm; NAD+-induced phase separation by confocal microscopy; type: biochemical; conditions: 100 uM NAD+, 10 mM MgCl2, pH 8.0, 25 °C, 16 h; condensates: 10 uM protein, NAD+ 0.2 mM
T1 construct: residues 1-191, GFP-tagged, pET-MBP-mGFP vector, E. coli BL21(DE3)
T1 sequence (F4HT77 1-191): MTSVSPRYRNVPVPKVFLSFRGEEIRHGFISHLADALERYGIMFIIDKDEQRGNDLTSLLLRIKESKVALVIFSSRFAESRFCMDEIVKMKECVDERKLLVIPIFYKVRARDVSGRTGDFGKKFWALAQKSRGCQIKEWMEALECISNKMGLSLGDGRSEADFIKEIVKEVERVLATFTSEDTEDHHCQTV

[2] = target: T2, RPP1-TIR–GFP (RPP1-TIR) (Arabidopsis thaliana, UniProt Q9ZSN5); experiment: as above; type: biochemical; conditions: 100 uM NAD+, 10 mM MgCl2, pH 8.0, 25 °C, 16 h; droplets: 1 mM NAD+, 25 uM protein, 5% PEG 3,350
T2 construct: TIR domain residues 1-254, GFP-tagged, pET-MBP-mGFP vector, E. coli BL21(DE3); an untagged 60-254 form (GST cut, Sf21) was also made
T2 sequence (Q9ZSN5 1-254): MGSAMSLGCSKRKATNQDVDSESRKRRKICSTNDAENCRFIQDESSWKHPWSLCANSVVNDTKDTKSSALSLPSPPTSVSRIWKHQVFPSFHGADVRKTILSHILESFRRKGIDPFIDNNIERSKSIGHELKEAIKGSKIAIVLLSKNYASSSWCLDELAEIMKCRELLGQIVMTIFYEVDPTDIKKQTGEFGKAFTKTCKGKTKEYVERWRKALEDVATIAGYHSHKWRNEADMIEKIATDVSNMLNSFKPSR

[3] = target: T3, TX14–GFP (Arabidopsis thaliana, UniProt F4ISS7, E57A/V58A/R59A/G60A/K61A/D62A); experiment: NADase assay, HPLC at […] nm; type: biochemical; conditions: 100 uM NAD+, 10 mM MgCl2, pH 8.0, 25 °C, 16 h
T3 construct: gene At2g32140; residues 1-351, GFP-tagged, pET-MBP-mGFP vector, E. coli BL21(DE3)
T3 sequence (F4ISS7 1-351 E57A/V58A/R59A/G60A/K61A/D62A): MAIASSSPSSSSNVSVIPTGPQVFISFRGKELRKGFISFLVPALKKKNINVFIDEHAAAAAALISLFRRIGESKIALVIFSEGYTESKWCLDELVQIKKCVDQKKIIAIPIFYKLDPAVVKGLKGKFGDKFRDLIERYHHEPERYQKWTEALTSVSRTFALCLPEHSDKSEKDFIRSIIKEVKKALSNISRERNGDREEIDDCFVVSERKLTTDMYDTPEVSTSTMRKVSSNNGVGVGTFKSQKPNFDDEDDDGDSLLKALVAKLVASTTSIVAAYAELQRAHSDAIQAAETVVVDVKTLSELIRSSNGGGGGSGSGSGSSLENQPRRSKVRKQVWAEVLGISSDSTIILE

[4] = target: T4, TX14–GFP (Arabidopsis thaliana, UniProt F4ISS7, S38D); experiment: NADase assay, HPLC at […] nm; type: biochemical; conditions: 100 uM NAD+, 10 mM MgCl2, pH 8.0, 25 °C, 16 h; 40 uM protein
T4 construct: gene At2g32140; residues 1-351, GFP-tagged, pET-MBP-mGFP vector, E. coli BL21(DE3)
T4 sequence (F4ISS7 1-351 S38D): T3 sequence (F4ISS7 1-351 E57A/V58A/R59A/G60A/K61A/D62A) with S38D, A57E, A58V, A59R, A60G, A61K, A62D

[5] = target: T5, TX14–GFP (Arabidopsis thaliana, UniProt F4ISS7); experiment: NADase assay, HPLC at […] nm; NAD+-induced phase separation by confocal microscopy; type: biochemical; conditions: 100 uM NAD+, 10 mM MgCl2, pH 8.0, 25 °C, 16 h; condensates: 10 uM protein, NAD+ 0.2 mM
T5 construct: gene At2g32140; residues 1-351, GFP-tagged, pET-MBP-mGFP vector, E. coli BL21(DE3)
T5 sequence (F4ISS7 1-351): T3 sequence (F4ISS7 1-351 E57A/V58A/R59A/G60A/K61A/D62A) with A57E, A58V, A59R, A60G, A61K, A62D

[6] = target: T1, RBA1–GFP; experiment: ATP-induced phase separation, confocal microscopy; conditions: 10 uM protein, 25 °C, 30 min; indirect read-out of binding
[7] = target: T2, RPP1-TIR–GFP (RPP1-TIR); experiment: ATP-induced phase separation, confocal microscopy and turbidity; conditions: 1 mM ATP, 25 uM protein, 5% PEG 3,350, pH 8.0, 25 °C, 30 min; indirect read-out of binding
[8] = target: T5, TX14–GFP; experiment: ATP-induced phase separation, confocal microscopy; conditions: 10 uM protein, 25 °C, 30 min; indirect read-out of binding

NC(=O)c1ccc[n+]([C@@H]2O[C@H](COP(=O)(O)OP(=O)(O)OC[C@H]3O[C@@H](n4cnc5c(N)ncnc54)[C@H](O)[C@@H]3O)[C@@H](O)[C@H]2O)c1 [NAD^+]
NADase assay, HPLC at 260 nm; NAD+-induced phase separation by confocal microsco [1]: wild-type RPP1-TIR, RBA1 and TX14 proteins nearly completely consumed the NAD^+ substrate | NADase assay, HPLC at 260 nm; NAD+-induced phase separation by confocal microsco [2]: wild-type RPP1-TIR, RBA1 and TX14 proteins nearly completely consumed the NAD^+ substrate | relative NADase activity [3]: NAD^+-hydrolysing activity was significantly reduced in the corresponding BB-loop mutant proteins | relative NADase activity [4]: the mutations of the AE interface impaired the NADase activity of these TIR domain proteins | NADase assay, HPLC at 260 nm; NAD+-induced phase separation by confocal microsco [5]: wild-type RPP1-TIR, RBA1 and TX14 proteins nearly completely consumed the NAD^+ substrate

Nc1ncnc2c1ncn2[C@@H]1O[C@H](COP(=O)(O)OP(=O)(O)OP(=O)(O)O)[C@@H](O)[C@H]1O [ATP]
ATP-induced phase separation, confocal microscopy [6]: ATP and NAD^+/ATP induced phase separation of the TIR domain protein RBA1 and TX14 | ATP-induced phase separation, confocal microscopy and turbidity [7]: ATP induced phase separation of the RPP1-TIR–GFP protein | ATP-induced phase separation, confocal microscopy [8]: ATP and NAD^+/ATP induced phase separation of the TIR domain protein RBA1 and TX14
